From ChEMBL document CHEMBL1201862, “PubChem BioAssay data set” (2004)
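How tested: cells in 96-well plates exposed to compound for 48 hours at five concentrations. GI50 marks 50% less growth.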 The source made the active and inactive calls. Cut-off read from the data, not from the text of the source: active = GI50 up to about 1.1 µM and inactive = higher.

Tests used:
Test in all cases: growth of human tumour cells (NCI), 48 h
[1] = tested on: MOLT-4
[2] = tested on: SR
[3] = tested on: PC-3
[4] = tested on: TK-10
[5] = tested on: U-251
[6] = tested on: HT-29
[7] = tested on: Hs-578T
[8] = tested on: SK-MEL-2
[9] = tested on: MDA-MB-435
[10] = tested on: UO-31
[11] = tested on: SW-620
[12] = tested on: COLO 205
[13] = tested on: MDA-MB-231
[14] = tested on: LOX IMVI
[15] = tested on: IGROV-1
[16] = tested on: NCI-H460
[17] = tested on: BT-549
[18] = tested on: UACC-62
[19] = tested on: ACHN
[20] = tested on: OVCAR-5
[21] = tested on: NCI/ADR-RES
[22] = tested on: KM12
[23] = tested on: OVCAR-4
[24] = tested on: DU-145
[25] = tested on: OVCAR-3
[26] = tested on: NCI-H226
[27] = tested on: 786-0
[28] = tested on: SF-295
[29] = tested on: RPMI-8226
[30] = tested on: K562
[31] = tested on: SNB-19
[32] = tested on: A498
[33] = tested on: M14
[34] = tested on: SF-539
[35] = tested on: CAKI-1
[36] = tested on: HOP-62
[37] = tested on: HCC 2998
[38] = tested on: SK-MEL-5
[39] = tested on: HCT-116
[40] = tested on: HL-60
[41] = tested on: NCI-H522
[42] = tested on: UACC-257
[43] = tested on: A549
[44] = tested on: SK-MEL-28
[45] = tested on: SNB-75
[46] = tested on: SF-268
[47] = tested on: Malme-3M
[48] = tested on: T47D
[49] = tested on: MCF7
[50] = tested on: NCI-H23
[51] = tested on: HOP-92
[52] = tested on: EKVX
[53] = tested on: HCT-15
[54] = tested on: MDA-N
[55] = tested on: RXF 393
[56] = tested on: OVCAR-8
[57] = tested on: SN12C
[58] = tested on: SK-OV-3
[59] = tested on: CCRF-CEM

SMILES: CC(=O)OC1C(O)COC(O[C@H]2CC[C@]34C[C@]35CC[C@]3(C)C([C@@]6(C)CC[C@@H](C(C)(C)O)O6)[C@@H](O)C[C@@]3(C)C5C[C@H](OC3OCC(O)C(O)C3O)[C@H]4C2(C)C)C1OC1OCC(O)C(O)C1O (stereo partly specified)
- GI50 [1]: > 100 µM (inactive)
- GI50 [2]: > 100 µM (inactive)
- GI50 [3]: > 100 µM (inactive)
- GI50 [4]: > 100 µM (inactive)
- GI50 [5]: > 100 µM (inactive)
- GI50 [6]: > 100 µM (inactive)
- GI50 [7]: > 100 µM (inactive)
- GI50 [8]: > 100 µM (inactive)
- GI50 [9]: > 100 µM (inactive)
- GI50 [10]: > 100 µM (inactive)
- GI50 [11]: > 100 µM (inactive)
- GI50 [12]: > 100 µM (inactive)
- GI50 [13]: > 100 µM (inactive)
- GI50 [14]: > 100 µM (inactive)
- GI50 [15]: > 100 µM (inactive)
- GI50 [16]: > 100 µM (inactive)
- GI50 [17]: > 100 µM (inactive)
- GI50 [18]: > 100 µM (inactive)
- GI50 [19]: > 100 µM (inactive)
- GI50 [20]: > 100 µM (inactive)
- GI50 [21]: > 100 µM (inactive)
- GI50 [22]: > 100 µM (inactive)
- GI50 [23]: > 100 µM (inactive)
- GI50 [24]: > 100 µM (inactive)
- GI50 [25]: > 100 µM (inactive)
- GI50 [26]: > 100 µM (inactive)
- GI50 [27]: > 100 µM (inactive)
- GI50 [28]: > 100 µM (inactive)
- GI50 [29]: > 100 µM (inactive)
- GI50 [30]: > 100 µM (inactive)
- GI50 [31]: > 100 µM (inactive)
- GI50 [32]: > 100 µM (inactive)
- GI50 [33]: > 100 µM (inactive)
- GI50 [34]: > 100 µM (inactive)
- GI50 [35]: > 100 µM (inactive)
- GI50 [36]: > 100 µM (inactive)
- GI50 [37]: > 100 µM (inactive)
- GI50 [38]: > 100 µM (inactive)
- GI50 [39]: > 100 µM (inactive)
- GI50 [40]: 11.6 µM (inactive)
- GI50 [41]: > 100 µM (inactive)
- GI50 [42]: > 100 µM (inactive)
- GI50 [43]: > 100 µM (inactive)
- GI50 [44]: > 100 µM (inactive)
- GI50 [45]: > 100 µM (inactive)
- GI50 [46]: > 100 µM (inactive)
- GI50 [47]: > 100 µM (inactive)
- GI50 [48]: > 100 µM (inactive)
- GI50 [49]: > 100 µM (inactive)
- GI50 [50]: > 100 µM (inactive)
- GI50 [51]: > 100 µM (inactive)
- GI50 [52]: > 100 µM (inactive)
- GI50 [53]: > 100 µM
- GI50 [54]: > 100 µM (inactive)
- GI50 [55]: > 86.3 µM (inactive)
- GI50 [56]: > 100 µM (inactive)
- GI50 [57]: > 100 µM (inactive)
- GI50 [58]: > 100 µM (inactive)

SMILES: O=C1CC2(CCC(O)(c3cccc4ccccc34)C(C(=O)c3cccc4ccccc34)C2)C(=O)c2ccccc2N1 (stereo unspecified)
- GI50 [1]: 25.9 µM (inactive)
- GI50 [2]: 14.2 µM (inactive)
- GI50 [3]: 91 µM (inactive)
- GI50 [4]: 29.1 µM (inactive)
- GI50 [5]: 11.1 µM (inactive)
- GI50 [6]: 7.93 µM (inactive)
- GI50 [59]: > 10 µM (inactive)
- GI50 [7]: 6.78 µM (inactive)
- GI50 [8]: > 100 µM (inactive)
- GI50 [9]: 72.6 µM (inactive)
- GI50 [10]: 23.7 µM (inactive)
- GI50 [11]: 24.2 µM (inactive)
- GI50 [12]: 29.6 µM (inactive)
- GI50 [13]: 17.7 µM (inactive)
- GI50 [14]: 32.8 µM (inactive)
- GI50 [15]: > 100 µM (inactive)
- GI50 [16]: 7.78 µM (inactive)
- GI50 [17]: 46.7 µM (inactive)
- GI50 [18]: 81.5 µM (inactive)
- GI50 [20]: 71.8 µM (inactive)
- GI50 [21]: > 100 µM (inactive)
- GI50 [24]: 25.8 µM (inactive)
- GI50 [25]: 39.9 µM (inactive)
- GI50 [26]: > 100 µM (inactive)
- GI50 [28]: 12.6 µM (inactive)
- GI50 [30]: 15.6 µM (inactive)
- GI50 [31]: 5.09 µM (inactive)
- GI50 [32]: > 100 µM (inactive)
- GI50 [33]: 29.8 µM (inactive)
- GI50 [34]: 48 µM (inactive)
- GI50 [35]: 25.9 µM (inactive)
- GI50 [36]: 10.5 µM (inactive)
- GI50 [37]: 26.1 µM (inactive)
- GI50 [38]: 24.8 µM (inactive)
- GI50 [39]: 23.6 µM (inactive)
- GI50 [40]: > 10 µM (inactive)
- GI50 [42]: > 100 µM (inactive)
- GI50 [43]: > 100 µM (inactive)
- GI50 [44]: 11.1 µM (inactive)
- GI50 [45]: 10.7 µM (inactive)
- GI50 [46]: 15.7 µM (inactive)
- GI50 [47]: > 100 µM (inactive)
- GI50 [48]: 34.5 µM (inactive)
- GI50 [49]: 36 µM (inactive)
- GI50 [50]: 62.2 µM (inactive)
- GI50 [51]: 7.43 µM (inactive)
- GI50 [52]: 28.9 µM (inactive)
- GI50 [53]: 26.4 µM
- GI50 [54]: 18.4 µM (inactive)
- GI50 [55]: 4.1 µM (inactive)
- GI50 [56]: > 100 µM (inactive)
- GI50 [57]: 72.8 µM (inactive)
- GI50 [58]: 46.3 µM (inactive)
